Measurements from patent publication US8546072B2, “Substrate for assaying β-glucan and/or endotoxin and assay method” (Wako Pure Chemical Industries, Ltd., priority 2008, dated 2013).
Primed or numbered codes have the meaning given here. The star is where a group is joined. NH(CH2)4NH′ = not defined here; Boc = CC(C)(C)OC(=O)*

Tested on: clotting enzyme
Experiment: Study on the reactivity of clotting enzyme by substrate (β-glucan-activated LAL fraction, HPLC of released fluorescent compound)
Assay type: biochemical, Limulus polyphemus
Conditions: β-glucan-specific LAL fraction, 25 ng/mL standard β-glucan (lentinan), 37° C., FIG. 3
Procedure: b) Aqueous solution of the peptide derivative of the present invention (hereinafter, sometimes abbreviated as substrate of the present invention): Boc-Thr-Gly-Arg-Gly-NH(CH2)4NH-Hilyte647 was dissolved in β-glucan-free water, and prepared to give 640 μM.
c) Aqueous substrate solution of known analogous substrate: Boc-Thr-Gly-Arg-NH-(CH2)4—NH-HiLyte647 obtained in Reference Example 1 was dissolved in β-glucan-free water, and prepared to give 640 μM.
d) Standard β-glucan solution: Intravenous lentinan preparation “Astellas” (Astellas Pharma Inc.) (1 mg) was dissolved in 0.1 M aqueous sodium hydroxide to give 50 μg/mL, and the solution was then diluted appropriately with β-glucan-free water, and used as the standard β-glucan solution. e) β-glucan specific LAL fraction solution: A fraction in which β-glucan-dependent clotting enzyme activity was detected was collected from the blood cell of American horseshoe crab (Limulus polyphemus) according to LAL extraction method described in pages 268 to 269 of “T. Kitagawa et al., Journal of Chromatography, 567 (1991) 267-273” and fractionation method by ion exchange chromatography, LAL fraction (a fraction corresponding to the fraction Nos. 7 to 20 in the above described literature) in 20 mM Tris-HCl buffer (pH 8.0) was obtained. […]

Row | decomposition rate (area of released fluorescent compound versus total area) (after 2 hours of reaction) [%] | time in which the substrate was cleaved by the clotting enzyme (substrate 160 μM in reagent for reaction 1) | Substance
1 | ≤ 20 |  | Boc-Thr-Gly-Arg-NH(CH2)4NH-Hilyte647 [Reference Example 1]
2 |  | about 20 minutes | Boc-Thr-Gly-Arg-Gly-NH(CH2)4NH-Hilyte647 (Boc-TGRG-{NH(CH2)4NH′-HiLyte Fluor 647}) [tetrapeptide substrate with butanediamine spacer and HiLyte Fluor 647 dye]
